Source: article PMC10788917 (Journal of Medicinal Chemistry, 2023)
Where two headings read alike, the source gives them in different places.

Assays:
SET2 cells = test: CellTiter-Blue cell viability assay; format: cell-based; conditions: Homo sapiens, SET-2; 72 h, HDAC8-independent line, Figure 7B
Protocol: (§1) All cell lines were purchased from DSMZ (Braunschweig, Germany). The cell lines were regularly tested to exclude mycoplasma contamination and authenticated. […] Media were supplemented with 10% fetal calf serum (FCS), 10 units/mL penicillin, 10 μg/mL streptomycin, and 2 mM L-glutamine (all Gibco, Thermo Fisher Scientific).
(§2) To determine the IC50 of the selected compounds on the cell lines, the CellTiter-Blue cell viability assay (Promega) was performed. For this, cells were seeded in 96-well flat-bottom plates at a cell density of 10 000 cells/well. Cells were treated in triplicate with the compound of interest at various concentrations or with 10 μM Bortezomib (S1013; Selleck Chemicals, Houston, TX), as a positive control. […] Plates were measured using a GloMax plate reader (Promega), and IC50 values were determined by nonlinear regression using GraphPad Prism version 9.1.1 (GraphPad Software, Inc.), and the data are reported as mean values ± the standard error of the mean.

MV4-11 cells = test: CellTiter-Blue cell viability assay; format: cell-based; conditions: Homo sapiens, 72 h, HDAC8-dependent line, Figure 7B
Protocol: as §1, §2

OCI-AML3 cells = test: CellTiter-Blue cell viability assay; format: cell-based; conditions: Homo sapiens, OCI-AML-3; 72 h, HDAC8-dependent line, Figure 7B
Protocol: as §1, §2

HEL cells = test: CellTiter-Blue cell viability assay; format: cell-based; conditions: Homo sapiens, 72 h, HDAC8-independent line, Figure 7B
Protocol: as §1, §2

THP-1 cells = test: CellTiter-Blue cell viability assay; format: cell-based; conditions: Homo sapiens, 72 h
Protocol: as §1, §2

MOLM-13 cells = test: CellTiter-Blue cell viability assay; format: cell-based; conditions: Homo sapiens, 72 h, HDAC8-dependent line, Figure 7B
Protocol: as §1, §2

HL60 cells = test: CellTiter-Blue cell viability assay; format: cell-based; conditions: Homo sapiens, HL-60; 72 h, Figure 7A
Protocol: All cell lines were purchased from DSMZ (Braunschweig, Germany). The cell lines were regularly tested to exclude mycoplasma contamination and authenticated. Cell lines were grown at 37 °C and 5% CO2 in RPMI 1640 medium (Gibco, Thermo Fisher Scientific). Media were supplemented with 10% fetal calf serum (FCS), 10 units/mL penicillin, 10 μg/mL streptomycin, and 2 mM L-glutamine (all Gibco, Thermo Fisher Scientific).
To determine the IC50 of the selected compounds on the cell lines, the CellTiter-Blue cell viability assay (Promega) was performed. For this, cells were seeded in 96-well flat-bottom plates at a cell density of 10 000 cells/well. Cells were treated in triplicate with the compound of interest at various concentrations or with 10 μM Bortezomib (S1013; Selleck Chemicals, Houston, TX), as a positive control. The cell viability of treated cell lines was measured using CellTiter-Blue after incubation for 72 h. Plates were measured using a GloMax plate reader (Promega), and IC50 values were determined by nonlinear regression using GraphPad Prism version 9.1.1 (GraphPad Software, Inc.), and the data are reported as mean values ± the standard error of the mean.

SMC3 acetylation = test: Western blot (immunoblot) in OCI-AML3 cells; format: cell-based; conditions: 72 h treatment
Protocol: Cells (2 ×10^6) were seeded in 2 mL of medium in a six-well plate (Greiner) and treated with the desired concentration of the compounds. […] Protein concentrations were determined by the Bradford protein assay. Thirty micrograms of cell lysates per treatment was fractionated on sodium dodecyl sulfate–polyacrylamide gels and transferred to nitrocellulose membranes (Cytiva).

HDAC8 Cys153Ser mutant = molecular target: T1, HDAC8 Cys153Ser mutant (Homo sapiens, UniProt Q9BY41, C153S); test: HDAC8 mutant biochemical assay; conditions: preincubation 1 h
T1 construct: made in house
T1 sequence (Q9BY41 whole entry C153S): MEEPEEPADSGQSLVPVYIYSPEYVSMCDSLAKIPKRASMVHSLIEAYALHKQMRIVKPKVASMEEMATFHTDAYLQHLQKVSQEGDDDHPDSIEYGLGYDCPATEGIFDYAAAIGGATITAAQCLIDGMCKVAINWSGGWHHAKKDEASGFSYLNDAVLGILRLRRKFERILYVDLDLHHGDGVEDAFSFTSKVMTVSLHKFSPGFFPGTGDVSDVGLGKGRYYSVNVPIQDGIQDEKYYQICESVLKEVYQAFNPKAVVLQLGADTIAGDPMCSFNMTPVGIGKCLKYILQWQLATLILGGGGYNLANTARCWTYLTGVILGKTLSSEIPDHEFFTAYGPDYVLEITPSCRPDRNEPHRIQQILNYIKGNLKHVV

IC50 (MV4-11 cells): 8.23 ± 0.12 µM
IC50 (OCI-AML3 cells): 27.2 ± 5.86 µM
IC50 (THP-1 cells; Figure 7A, read-out: cell viability IC50, THP-1): 46.5 µM
IC50 (THP-1 cells; HDAC8-independent line, Figure 7B, read-out: THP-1 IC50): 78.1 ± 32.8 µM
IC50 (MOLM-13 cells): 7.08 ± 1.07 µM
IC50 (HL60 cells): 161 µM
IC50 (HDAC8 Cys153Ser mutant): 58.8 µM
SMILES: C#Cc1c[n+](C)ccc1NC(=O)CC(=O)N1Cc2ccccc2C1.[I-] [compound 3, 3-Ethynyl-4-[3-(isoindolin-2-yl)-3-oxopropanamido]-1-methylpyridin-1-ium Iodide]
IC50 (SET2 cells): > 200 µM
IC50 (HEL cells): > 200 µM
concentration inducing an increased level of SMC3 acetylation (SMC3 acetylation): 10 µM
effect on HDAC8 levels (SMC3 acetylation): not influencing HDAC8 levels
